For 15 compounds, IC50 results are on record in patent US9284283B2, “Macrocyclic compounds for modulating IL-17” (ENSEMBLE THERAPEUTICS CORPORATION, priority 2012, dated 2016).

Broadly, the IC50 is the concentration at which inhibition is half-maximal.

The target of the test is T1, biotinylated human IL-17 (binding to IL17R/Fc) (Homo sapiens, UniProt Q16552).
T1 construct: purchased R&D Systems 317-ILB (IL-17, biotinylated); 177-IR (IL17R/Fc)
T1 sequence (Q16552 20-155 limits assumed): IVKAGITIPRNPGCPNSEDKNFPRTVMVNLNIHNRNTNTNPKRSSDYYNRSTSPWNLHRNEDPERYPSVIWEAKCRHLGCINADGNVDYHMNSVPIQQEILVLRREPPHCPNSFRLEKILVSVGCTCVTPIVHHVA
The test is described as follows: IL-17 competition ELISA II (captured IL17R/Fc, biotinylated IL-17). An outline of the steps: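 Anti-human IgG-coated plates captured IL17R/Fc (10 nM), then compound (5-fold dilutions from 1 μM) and biotinylated human IL-17 (20 nM stock) were added for 30 min at room temperature in PBST. Bound IL-17 detected by streptavidin-HRP/TMB at 450 nm. IC50 from 4-parameter logistic fit between no-competitor and blank controls.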
(In an ELISA, binding on a coated surface is turned into a signal by an enzyme label.)
Regarding `CN1CCCC[C@@H](C(=O)O)N(C)C(=O)CC2(CCCC2)CC(=O)N[C@H](Cc2ccc(NC(=O)[C@H](Cc3ccccc3Cl)NC(=O)C(F)(F)c3ccccc3)cc2)C(=O)N[C@H](CCC(N)=O)C1=O` [Compound 667], the IC50 was less than 100 nM.
As for `CN1CCCC[C@@H](C(=O)O)N(C)C(=O)CC2(CCCC2)CC(=O)N[C@H](Cc2ccc(NC(=O)[C@@H](NC(=O)C(F)(F)c3ccccc3)C3CCCCC3)cc2)C(=O)N[C@H](CCC(N)=O)C1=O` [Compound 668], the IC50 is less than 100 nM.
For `CN1CCCCCN(C)C(=O)[C@@H](CC(N)=O)NC(=O)[C@@H](Cc2ccc(NC(=O)[C@H](Cc3ccccc3Cl)NC(=O)C(F)(F)c3ccccc3)cc2)NC(=O)CC2(CCCC2)CC1=O` [Compound 669] the value was less than 100 nM; for `CN1CCCCCN(C)C(=O)[C@@H](CC(N)=O)NC(=O)[C@@H](Cc2ccc(NC(=O)[C@@H](NC(=O)C(F)(F)c3ccccc3)C3CCCCC3)cc2)NC(=O)CC2(CCCC2)CC1=O` [Compound 670], less than 100 nM.
As for `O=C1CNC(=O)[C@@H](Cc2ccc(NC(=O)[C@@H](NC(=O)C(F)(F)c3ccccc3)C3CCCCC3)cc2)NC(=O)CC2(CCCC2)CC(=O)OCCCCCN1` [Compound 671], the figure is less than 100 nM; as for `O=C1CNC(=O)[C@@H](Cc2ccc(NC(=O)[C@@H](NC(=O)C(F)F)C3CCCCC3)cc2)NC(=O)CC2(CCCC2)CC(=O)OCCCCCN1` [Compound 672], less than 100 nM.
In the case of `CC(=O)N[C@H](C(=O)Nc1ccc(C[C@H]2NC(=O)CC3(CCCC3)CC(=O)OCCCCCNC(=O)CNC2=O)cc1)C1CCCCC1` [Compound 673], the IC50 is less than 100 nM.
Regarding `O=C1CNC(=O)[C@@H](Cc2ccc(NC(=O)[C@H](Cc3ccccc3Cl)NC(=O)C(F)(F)c3ccccc3)cc2)NC(=O)CC2(CCCC2)CC(=O)OCCCCCN1` [Compound 674], the IC50 is less than 100 nM.
As for `O=C1CNC(=O)[C@@H](Cc2ccc(NC(=O)[C@H](Cc3ccccc3Cl)NC(=O)C(F)F)cc2)NC(=O)CC2(CCCC2)CC(=O)OCCCCCN1` [Compound 675], the figure is less than 100 nM.
Take `CC(=O)N[C@@H](Cc1ccccc1Cl)C(=O)Nc1ccc(C[C@H]2NC(=O)CC3(CCCC3)CC(=O)OCCCCCNC(=O)CNC2=O)cc1` [Compound 676]: the IC50 is less than 100 nM.
With `CCC(F)(F)C(=O)N[C@H](C(=O)Nc1ccc(C[C@H]2NC(=O)CC3(CCCC3)CC(=O)OCCCCCNC(=O)CNC2=O)cc1)C1CCCCC1` [Compound 677], the IC50 lay within 100 to 1000 nM.
Consider `CN1CCCCCOC(=O)CC2(CCCC2)CC(=O)N[C@H](Cc2ccc(NC(=O)[C@H](Cc3ccccc3Cl)NC(=O)C(F)(F)c3ccccc3)cc2)C(=O)NCC1=O` [Compound 678], for which the IC50 is less than 100 nM.
As for `CN1CCCCCOC(=O)CC2(CCCC2)CC(=O)N[C@H](Cc2ccc(NC(=O)[C@@H](NC(=O)C(F)(F)c3ccccc3)C3CCCCC3)cc2)C(=O)NCC1=O` [Compound 679], the figure is less than 100 nM; as for `CCC(F)(F)C(=O)NC(C(=O)Nc1ccc(CC2NC(=O)CC3(CCCC3)CC(=O)OCCCCCN(C)C(=O)CNC2=O)cc1)C1CCCCC1` (stereo not drawn) [Compound 680], 100 to 1000 nM.
As for `CC(=O)NC(C(=O)Nc1ccc(CC2NC(=O)CC3(CCCC3)CC(=O)OCCCCCN(C)C(=O)CNC2=O)cc1)C1CCCCC1` (stereo not drawn) [Compound 681], the figure is less than 100 nM.
